Data on one molecule can be found in patent US20190117675A1, “Compositions And Methods To Treat And/Or Prevent Vision Disorders Of The Lens Of The Eye” (Helix Holding Company, priority 2014, published 2019).

Entries after “also recorded” stand apart in the source; their conditions may differ.

Data set [1] can be described thus: Lanosterol eye drop formulation evaluation (stability, irritation, intraocular bioavailability). Conditions: dissolved in pure aqueous solution.
Excerpt: The optimal formulation was selected based on the stability of the active ingredient, irritation, and intraocular bioavailability of the eye drops.
Data set [2] relates to various cataract-causing crystallin mutants. Briefly: Aggresome / intracellular aggregate formation of crystallin mutants in transfected cells (confocal microscopy). In kind it is cell-based. Conditions: 0-40 μM sterols in 2% DMSO, 2 h treatment then 12 h culture; lanosterol effect dose-dependent. The procedure: The effect of lanosterol or cholesterol on the aggresome formation of various crystallins was studied by transfecting the cells using plasmids containing various crystallin genes. The cells were cultivated for 24 h to enable efficient protein expression and aggresome formation. Then the cells were treated with 0-40 μM sterols in 2% DMSO. The cells treated with 2% DMSO were used as the control. After treatment for 2 h, the cells were moved to fresh DMEM medium containing 10% fetal bovine serum and further cultivated for 12 h. Then the cells were used for microscopy analysis.
The microscopy samples were prepared by washing the slips by phosphate buffered saline (PBS) three times. The cells were fixed with 4% paraformaldehyde for 40 min followed by three times washing with PBS. The cells were permeabilized with 0.1% Triton X-100 (Sigma) in PBS for 10 min and blocked with 5% normal goat serum in PBS for 1 h at 37° C. Immunostaining was carried out by adding mouse anti-Flag antibody (1:500) or anti-p62 antibody (1:200) in PBS buffer containing 5% normal goat serum and cultivated for 1 h at 37° C. Then the slips were washed three times with PBS, and further incubated with Alexa 649-conjugated goat anti-mouse IgG (1:250) for 1 h at ambient temperature. The nuclei were counterstained with Hoechst 33342. The mounted cells were analyzed using a Carl Zeiss LSM 710 confocal microscope.

Data set [3] concerns aA-crystallin-Y118D and aB-crystallin-R120G. In words: Dissolving of accumulated crystal protein in cells carrying two crystallin mutant plasmids. In kind it is cell-based. Conditions: 10 uM, compared with 1% DMSO solution. The protocol: FIG. 13. Two mutant crystal proteins were introduced into cells. The accumulated crystal protein were treated by adding different agents.
Cyclopentanoperhy drophenanthrene compounds of the present invention refers to a compound containing cyclopentanoperhy drophenanthrene skeleton structure, including its derivatives. After the two crystal protein mutant plasmid aA-crystallin-Y118D and aB-crystallin-R120G were introduced into cells, we investigated the lanosterol and its derivatives as well as cholesterol (Cholesterol) for their effects on intracellular accumulation of crystal protein. Not all cyclopentanoperhy drophenanthrene compound have the same effect.

For data set [4], the target named is T1, αB-crystallin R120G mutant (Homo sapiens, UniProt P02511, R120G).
T1 construct: made in house
T1 sequence (P02511 1-175 R120G): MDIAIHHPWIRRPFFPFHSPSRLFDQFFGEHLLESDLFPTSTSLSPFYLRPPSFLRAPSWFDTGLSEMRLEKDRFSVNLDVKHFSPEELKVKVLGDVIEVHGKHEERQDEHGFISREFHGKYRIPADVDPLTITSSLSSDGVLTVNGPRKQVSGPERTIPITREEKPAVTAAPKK
In words: Negative-stain EM of aggregates treated with sterol in liposome. In kind it is biochemical. The following applies: negatively stained EM. The procedure: Representative negatively stained EM pictures of the aggregates of αB-crystallin R120G mutant treated by liposome, lanosterol in liposome and cholesterol in liposome, respectively. The EM samples were stained by 1.25% uranyl acetate.
Quantitative analysis was performed by calculating the number of particles with length over 50 nm from six randomly picked viewing field. Each viewing field contained 30-50 particles.
The aggregates of the WT and mutated αA- and αB-crystallin proteins were obtained by heating the proteins solutions containing 1 M guanidine chloride (ultrapure, Sigma) with a concentration of 5 mg/ml at 60° C. for 48 h. The aggregates of the WT and mutated β- and γ-crystallins were prepared by heating the protein solutions at pH 3 and 37° C. for 48 h. The formation of aggregates was confirmed by turbidity (absorbance at 400 nm) and transmission electron microscope (EM) measurements. The preformed aggregates were resuspended in 20 mM PBS with a final concentration of 0.1 mg/ml (approximately 5 μM). The resuspended aggregates were treated by 50 μM lanosterol or cholesterol in liposomes formed by 50 μM DPPS at 37° C. […] The soluble proteins were determined by centrifuge the protein solutions to separate the supernatant and precipitation fractions. Then the protein concentration in the supernatant was determined by the Bradford method. […]

A further data set has as its system cataractous rabbit lens. In words: Treatment of isolated cataractous rabbit lenses. The following applies: isolated rabbit lenses incubated with lanosterol for 6 days. The protocol:
FIG. 9. […] Rabbit lenses (n=13) were dissected and incubated with lanosterol for 6 days and subsequently assessed for lens clarity and transparency. Pairs of photographs of each cataractous rabbit lens showing before and after treatment with scores underneath are shown.
Rabbits were euthanized by CO2 inhalation and lenses were immediately dissected and were treated with vehicle or lanosterol dissolved in vehicle to make 5 mM solutions. Lens tissues were incubated in these solutions for 6 days in the dark at room temperature. Cataract were examined under a microscope and then photographed. Degree of cataract was assessed using AREDS cataract grading system.

For the molecule `CC(C)=CCC[C@@H](C)[C@H]1CC[C@@]2(C)C3=C(CC[C@]12C)[C@@]1(C)CC[C@H](O)C(C)(C)[C@@H]1CC3` [Lanosterol], in data set [1], the “stability and solubility of lanosterol” value was “poor stability and low solubility”. For the same molecule, the “intracellular aggregation of various cataract-causing crystallin mutants” value in data set [2] is recorded as “significantly reduced intracellular aggregation”. For the same molecule, the “dissolving of accumulated crystal protein” value in data set [3] is “significantly dissolve accumulated crystals protein; also recorded: significant dissolving of the accumulated crystal protein”. Further, the “dissociation of aggregates formed by αB-crystallin R120G mutant (number of particles with length over 50 nm)” value in data set [4] is “dissociates the aggregates”. Further, the “cataract severity and lens clarity” value in the data set on cataractous rabbit lens was “reduced cataract severity and increased clarity”.
